EP2711367A1, “New spiroepoxide tetrahydrobenzo-triazoles and -imidazoles and their use as MetAP-II inhibitors” (Deutsches Krebsforschungszentrum, priority 2012, dated 2014)
Where two headings read alike, the source gives them in different places.

Columns and labels:
[1] = molecular target: E. coli MetAP (Escherichia coli, UniProt P0AE18); test: MetAP inhibitory activity, Met-Gly-Met-Met substrate, HPLC detection of Gly-Met-Met; assay type: biochemical; settings: for E. Coli % inhibition: single concentration: inhibitor 25 µM, enzyme 50 nM, 20 minutes substrate incubation at 37 °C; for inhibition at 25 µM: read-out: E. Coli % inhibition
E. coli MetAP, sequence (P0AE18 whole entry): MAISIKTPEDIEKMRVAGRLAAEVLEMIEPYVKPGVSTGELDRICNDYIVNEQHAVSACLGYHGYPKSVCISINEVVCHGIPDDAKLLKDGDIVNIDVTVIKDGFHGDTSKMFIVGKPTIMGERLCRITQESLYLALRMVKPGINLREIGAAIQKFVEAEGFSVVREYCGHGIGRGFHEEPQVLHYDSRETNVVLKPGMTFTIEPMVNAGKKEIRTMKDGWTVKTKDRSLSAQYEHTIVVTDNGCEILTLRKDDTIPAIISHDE
Method: (§1) The below protocol describes the measurement of the inhibitory activity of the compounds of the present invention by using E. coli MetAP, hsMetAP-I, and hsMetAP-II.
(§2) Inhibition activity of compounds was studied using the tetrapeptide substrate Met-Gly-Met-Met (Bachem) followed by HPLC analysis of the product Gly-Met-Met. The assay was performed in 96 well plates (Greiner) at a total reaction volume of 100 µl. […] A positive control with DMSO solution instead of inhibitor at the corresponding concentration was prepared. Then the substrate Met-Gly-Met-Met was added to a final concentration of 400 µM. After an incubation period of 15 minutes (HsMetAP-I), 20 minutes (EcMetAP) or 60 minutes (HsMetAP-II) at 37 °C, the enzyme reaction was stopped by adding 10 µl 4 % trifluoroacetic acid. The plate was centrifuged at 1000 x g for 10 minutes.
(§3) Detection of the product Gly-Met-Met was performed by HPLC (Jasco), and typically using the following, or equivalent conditions: C18 column (Dr. Maisch, ReproSil-Pur® 120 ODS-3, 3 µm, 50 x 2 mm). 80 µl of sample were applied on the column and eluted with mobile phase A (water and 0.1 % trifluoroacetic acid, filtered, degassed) and B (acetonitrile and 0.1 % trifluoroacetic acid, degassed) over 8 minutes.
(§4) Percentage inhibition was calculated as the relation of Gly-Met-Met amount resulting in inhibited and uninhibited enzyme reaction (positive control). […] The values were determined in relation to positive controls with equal DMSO contents. The inhibition values for the varying concentrations of inhibitor were then fitted to a logarithmic dose-response curve and the IC50 values were calculated from the equation thus obtained.

[2] = molecular target: hsMetAP-I (Homo sapiens, UniProt P53582); test: as above; assay type: biochemical, hs; settings: for inhibition at 25 µM: read-out: hsMetAP-I % inhibition
Method: as §1, §2, §3, §4

[3] = molecular target: hsMetAP-II (Homo sapiens, UniProt P50579); test: as above; assay type: biochemical, hs
hsMetAP-II, sequence (P50579 whole entry): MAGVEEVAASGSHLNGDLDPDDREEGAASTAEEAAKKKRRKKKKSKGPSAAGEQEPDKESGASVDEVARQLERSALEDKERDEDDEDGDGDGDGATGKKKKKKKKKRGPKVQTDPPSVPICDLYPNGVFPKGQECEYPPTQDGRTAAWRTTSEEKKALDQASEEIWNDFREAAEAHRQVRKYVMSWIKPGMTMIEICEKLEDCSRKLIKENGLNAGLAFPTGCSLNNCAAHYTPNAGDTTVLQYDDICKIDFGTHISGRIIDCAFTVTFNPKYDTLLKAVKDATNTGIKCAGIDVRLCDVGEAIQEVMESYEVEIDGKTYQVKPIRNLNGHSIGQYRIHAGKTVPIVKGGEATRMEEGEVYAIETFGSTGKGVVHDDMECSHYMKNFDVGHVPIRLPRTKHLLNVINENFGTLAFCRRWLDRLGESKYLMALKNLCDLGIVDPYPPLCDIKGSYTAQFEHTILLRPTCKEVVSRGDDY
Method: as §1
Inhibition activity of compounds was studied using the tetrapeptide substrate Met-Gly-Met-Met (Bachem) followed by HPLC analysis of the product Gly-Met-Met. The assay was performed in 96 well plates (Greiner) at a total reaction volume of 100 µl. […] Then the substrate Met-Gly-Met-Met was added to a final concentration of 400 µM. After an incubation period of 15 minutes (HsMetAP-I), 20 minutes (EcMetAP) or 60 minutes (HsMetAP-II) at 37 °C, the enzyme reaction was stopped by adding 10 µl 4 % trifluoroacetic acid. The plate was centrifuged at 1000 x g for 10 minutes.
as §3, §4

[4] = tested on: human umbilical vein endothelial cells (HUVEC); test: HUVEC growth arrest, crystal violet staining; assay type: cell-based; settings: Homo sapiens, HUVEC, 240 h, growth over 10 days, 0-100 µM, OD at 595 nm; read-out: HUVEC IC50
Source text: For the measurement of the HUVEC growth arrest (Example 19) and the used materials and equipment were:
• Cells: Primary human umbilical vein cells (HUVEC) were obtained from GIBCO (Cat. C-015-5C). • Cell culture medium: Medium 200 supplemented with LSGS (Gibco, Cat. M-200-500). • Trypsin/EDTA (Gibco, Cat R-001-100) • Trypsin Neutralizer solution (Gibco, Cat R-002-100). • Crystal violet (Merck / Cat. no. 1408) • Ethanol (Riedel-de-Haen / Cat. no. 32205) • Acetic acid (Riedel-de-Haen / Cat. no. 33209) • Culture flasks: Coming, 430168 • 96 well plates: Greiner, 655 101
• Microtiter pipettes: •Brand Transferpette-8, • Gilson Pipetman 20 and 200 Laminar air flow cabinet: Gelman, Celaire • ELISA reader: Thermo, Multiskan Ascent • Microscope: Leitz Diavert • Balance: Sartorius RC 210 D • CO2 incubator: Heraeus CO2-Auto-Zero • Centrifuge: Heraeus Biofuge primo • Cell counter: Assistent, Neubauer hematocytometer
Crystal violet solution: • Crystal violet (Merck) was dissolved in ethanol (PA quality, Roth) to a concentration of 10 %. The solution was diluted with ddH2O 1:20.
Test compounds: • Compounds of the present invention were dissolved at a concentration of 10 mM in DMSO (Roth, Cat. 47201). Stock solutions of test compounds were diluted 1:10 not earlier than 1 hour before the assay was made.
• 1. HUVEC cells were seeded in 96-well plates ([…]). • 2. 6 hours later test compounds were added in triplicates Concentrations of test compound: 0, 1.6, 3.2, 6.3, 12.5, 25, 50, 100 µM. Fresh medium and test compounds were added every 48 hr. • 3. One 96 well plate (t=0) with untreated cells was fixed at the same time point as treatment of cells with test compounds was initiated. • 4. Test plates were incubated for 10 days in a CO2 incubator. • 5. Fixation of cells: Wells were washed with 100 µL/well PBS. PBS was decanted and 100 µL of 3 % formaldehyde/well was added. After 5 min, formaldehyde was decanted and plates were dried upside down on blotting paper overnight at room temperature. • 6. Staining: 0.1 mL of crystal violet solution was added to each well with a 12-channel pipette. After incubation for 5 min at room temperature, the crystal violet solution was decanted and plates were washed 5 x by submersion in 3 L fresh water. • 7. After drying (plates were dried on blotting paper upside down overnight) 0.1 mL of ethanol/acetic acid (99:1) was added to each well and the optical density at 595 nm was determined in an ELISA reader.
The evaluation of the growth inhibitory activity was carried out as follows: • Definitions: Growth: Mean OD at t=10 d - mean OD at t=0. • Evaluation: Dose response curves were established by plotting growth against concentration of compounds using Microsoft Excel.

[5] = single concentration: inhibitor 25 µM, enzyme 50 nM, 15 minutes substrate incubation at 37 °C
[6] = enzyme 50 nM, 400 µM Met-Gly-Met-Met, 60 minutes at 37 °C, read-out: hsMetAP-II IC50
[7] = single concentration: inhibitor 25 µM, enzyme 50 nM, 60 minutes substrate incubation at 37 °C, read-out: hsMetAP-II % inhibition
[8] = read-out: hsMetAP-II % inhibition, single concentration: inhibitor 25 µM, enzyme 50 nM, 60 minutes substrate incubation at 37 °C
[9] = single concentration: inhibitor 25 µM, enzyme 50 nM, 60 minutes substrate incubation at 37 °C

SMILES: O=C1CCC2(CO2)c2c1nnn2Cc1ccccc1 (centres unmarked) [HHS-I-027-B]
- E. Coli % inhibition [1]: Inactive
- hsMetAP-I % inhibition [2, 5]: Inactive
- IC50 [3, 6]: 13.7 ± 3.4 µM
- inhibition at 25 µM [3, 7]: 64.5 ± 0.1%

SMILES: COc1ccc(Cn2nnc3c2[C@@]2(CC[C@H]3OC(=O)/C=C/c3cc(OC)c(OC)c(OC)c3)CO2)cc1 (racemic) [UWU-II-035-C]
- E. Coli % inhibition [1]: Inactive
- hsMetAP-I % inhibition [2, 5]: Inactive
- IC50 [3]: 2.02 ± 0.03 µM
- inhibition at 25 µM [3, 8]: 85 ± 11%

SMILES: COc1ccc(Cn2nnc3c2C2(CCC3OC(=O)C=Cc3cc(OC)c(OC)c(OC)c3)CO2)cc1 (racemic) [UWU-XII-035-A]
- E. Coli % inhibition [1]: Inactive
- hsMetAP-I % inhibition [2, 5]: Inactive
- inhibitory effect on MetAP-II (in words) [3]: good inhibitory effect
- inhibition at 25 µM [3, 8]: 94 ± 4%
- IC50 ([3]; read-out: hsMetAP-II IC50, enzyme 50 nM, 400 µM Met-Gly-Met-Met, 60 minutes at 37 °C): 0.5 ± 1 µM

SMILES: COc1ccc(Cn2nnc3c2[C@]2(CC[C@H]3OC(=O)NC(C)C)CO2)cc1 (racemic) [UWU-XII-131-A]
- E. Coli % inhibition [1]: Inactive
- hsMetAP-I % inhibition [2, 5]: Inactive
- IC50 [4]: 0.4 µM

SMILES: O=C(O[C@@H]1CC[C@]2(CO2)c2c1nnn2Cc1ccc2ccccc2c1)c1ccccc1 (racemic) [JL-III-132-C]
- inhibition at 25 µM [1]: 22 ± 7%
- hsMetAP-I % inhibition [2, 5]: Inactive
- IC50 [3]: 3.7 ± 0.3 µM
- inhibition at 25 µM [3, 8]: 63 ± 5%

SMILES: COc1ccc(Cn2nnc3c2[C@@]2(CC[C@@H]3OC(=O)NC(C)C)CO2)cc1 [(-)-UWU-XII-131-A]
- E. Coli % inhibition [1]: Inactive
- hsMetAP-I % inhibition [2, 5]: Inactive
- IC50 [4]: 8.2 µM

SMILES: O=C(O[C@@H]1CC[C@]2(CO2)c2c1nnn2Cc1ccccc1)c1ccccc1 (racemic) [JL-III-147-A]
- inhibition at 25 µM [1]: 45 ± 7%
- inhibition at 25 µM [2]: 15 ± 1%
- IC50 [3]: 1.3 ± 0.01 µM
- inhibition at 25 µM [3, 8]: 93.3 ± 2.1%

SMILES: CC(C)Cn1cnc2c1C1(CCC2=O)CO1 (centres unmarked) [JL-II-120-B]
- E. Coli % inhibition [1]: Inactive
- hsMetAP-I % inhibition [2, 5]: Inactive
- inhibition at 25 µM [3, 7]: 12 ± 6%

SMILES: O=C(O[C@@H]1CC[C@@]2(CO2)c2c1nnn2Cc1ccc2ccccc2c1)c1ccccc1 [JL-III-132-D]
- E. Coli % inhibition [1]: Inactive
- hsMetAP-I % inhibition [2, 5]: Inactive
- inhibition at 25 µM [3, 7]: 15 ± 5%

SMILES: CC(C)c1ccc(Cn2nnc3c2C2(CCC3=O)CO2)cc1 (centres unmarked) [JL-III-138-A]
- inhibition at 25 µM [1]: 50 ± 6%
- inhibition at 25 µM [2, 5]: 16 ± 2%
- IC50 [3, 6]: 5.5 ± 3 µM
- inhibition at 25 µM [3, 7]: 84 ± 3%

SMILES: Cn1cnc2c1C1(CCC2=O)CO1 (racemic) [JL-II-136-A]
- E. Coli % inhibition [1]: Inactive
- hsMetAP-I % inhibition [2, 5]: Inactive
- hsMetAP-II % inhibition [3, 9]: Inactive

SMILES: CCn1cnc2c1C1(CCC2=O)CO1 (centres unmarked) [JL-II-137-A]
- E. Coli % inhibition [1]: Inactive
- hsMetAP-I % inhibition [2, 5]: Inactive
- hsMetAP-II % inhibition [3, 9]: Inactive

SMILES: Cn1nnc2c1C1(CCC2=O)CO1 (racemic) [CJ-II-011]
- inhibition at 25 µM [1]: 20 ± 2%
- inhibition at 25 µM [2, 5]: 14 ± 7%
- hsMetAP-II % inhibition [3, 9]: Inactive

SMILES: CCCn1cnc2c1C1(CCC2=O)CO1 (racemic) [JL-II-116-A]
- E. Coli % inhibition [1]: Inactive
- hsMetAP-I % inhibition [2, 5]: Inactive
- hsMetAP-II % inhibition [3, 9]: Inactive

SMILES: CCn1nnc2c1C1(CCC2=O)CO1 (centres unmarked) [CJ-II-007]
- inhibition at 25 µM [1]: 22 ± 5%
- hsMetAP-I % inhibition [2, 5]: Inactive
- hsMetAP-II % inhibition [3, 9]: Inactive

SMILES: Cc1ccccc1Cn1nnc2c1C1(CCC2=O)CO1 (centres unmarked) [BK-I-181-B]
- E. Coli % inhibition [1]: Inactive
- hsMetAP-I % inhibition [2, 5]: Inactive
- IC50 [3, 6]: 5.1 ± 2.9 µM
- inhibition at 25 µM [3, 7]: 100%

SMILES: O=C1CCC2(CO2)c2c1ncn2Cc1ccccc1 (centres unmarked) [JL-III-084-C]
- E. Coli % inhibition [1]: Inactive
- hsMetAP-I % inhibition [2, 5]: Inactive
- inhibition at 25 µM [3, 7]: 24 ± 1%

SMILES: O=C(O[C@@H]1CC[C@@]2(CO2)c2c1nnn2Cc1ccccc1)c1ccccc1 (racemic) [JL-III-147-B]
- inhibition at 25 µM [1]: 36 ± 11%
- hsMetAP-I % inhibition [2, 5]: Inactive
- IC50 [3]: 19.1 ± 9 µM
- inhibition at 25 µM [3, 8]: 59 ± 2%

SMILES: CC(C)CCn1cnc2c1C1(CCC2=O)CO1 (centres unmarked) [JL-II-115-A]
- inhibition at 25 µM [1]: 25 ± 8%
- hsMetAP-I % inhibition [2, 5]: Inactive
- hsMetAP-II % inhibition [3, 9]: Inactive

SMILES: O=C1CCC2(CO2)c2c1nnn2Cc1ccc2ccccc2c1 (centres unmarked) [HHS-I-020-C]
- inhibition at 25 µM [1]: 24 ± 8%
- hsMetAP-I % inhibition [2, 5]: Inactive
- IC50 [3, 6]: 2.7 ± 0.1 µM
- inhibition at 25 µM [3, 7]: 84.1 ± 3.2%

SMILES: CC(C)c1ccc(Cn2nnc3c2[C@]2(CC[C@H]3OC(=O)c3ccccc3)CO2)cc1 (racemic) [UWU-XII-036-A]
- inhibition at 25 µM [1]: 20 ± 8%
- hsMetAP-I % inhibition [2, 5]: Inactive
- IC50 [3]: 4.7 ± 0.3 µM
- inhibition at 25 µM [3, 8]: 59 ± 5%

SMILES: CCCCCCCCn1nnc2c1C1(CCC2=O)CO1 (centres unmarked) [CJ-II-010]
- inhibition at 25 µM [1]: 14 ± 7%
- inhibition at 25 µM [2, 5]: 12.1 ± 1.5%
- inhibition at 25 µM [3, 7]: 50 ± 2%
